Columns and labels:
Format in all cases: cell-based
Pex11a = test: expression of Pex11a in SH-SY5Y cells; details: 250 μM, 6 days (FIG. 1B)
Description: (§1) SH-SY5Y cells were stored frozen and cells with passage numbers between 20 and 24 were utilized. When required, SH-SY5Y cells were thawed at 20-25° C. and quickly seeded at a density of 13.3×10^3 cell/cm^2 in 75 cm^2 flasks. SH-SY5Y cells were then grown in media containing 1:1 DMEM/F-12+100 mL/L FBS+10 mL/L I-glutamine at +37° C. and 5% CO2. SH-SY5Y cells were exposed to 250 μM decanoic acid (C10) or octanoic acid (C8) for 6 days.
(§2) To assess effects upon peroxisomal content and function, the following parameters were studied; (a) activity of the peroxisomal marker enzyme, acyl CoA oxidase, (b) expression of Pex11a, a gene associated with peroxisomal biogenesis and (c) evaluation of peroxisomal fatty acid beta oxidation by monitoring the chain shortening of a very long chain fatty acid, C22, to C18, C16 and C14.

SH-SY5Y cells = test: peroxisomal fatty acid beta oxidation (chain shortening of C22 to C18, C16 and C14) in SH-SY5Y cells; details: 250 μM, 6 days, chain shortening of C22 to C18, C16 and C14 (FIG. 1C)
Description: as §1, §2

acyl CoA oxidase = acyl CoA oxidase activity in SH-SY5Y cells; details: 250 μM, 6 days (FIG. 1A)
Description: as §1, §2

SMILES: CCCCCCCCCC(=O)O [C10, Decanoic acid]
- Pex11a expression (Pex11a): increased Pex11a
- capacity to perform peroxisomal beta oxidation (SH-SY5Y cells): increased capacity to perform peroxisomal beta oxidation
- acyl CoA oxidase activity (acyl CoA oxidase): increase in acyl CoA oxidase activity
